From EPA's ToxValDB 9.5 (doi:10.2903/j.efsa.2008.187r)
Where “and” joins values, the source holds several entries; their conditions need not be identical. Identical values can stand only once.

Assays:
Daphnia magna = settings: chronic/long-term; duration: 21 days; reproduction
Colinus virginianus = settings: oral; for NOEL: short-term
Tagia sp. = settings: chronic/long-term; duration: 8 weeks
Apis mellifera = settings: acute, mortality
Coturnix japonica = settings: acute; oral; mortality

SMILES | NOEC (Daphnia magna) | LC50 (Colinus virginianus; acute, diet, mortality) | LD50 (Colinus virginianus; acute, mortality) | NOEC (Tagia sp.) | LD50 (Apis mellifera; dermal) | LD50 (Apis mellifera; oral, unspecified) | NOEL (Anas platyrhynchos; reproductive) | NOEL (Anas platyrhynchos; short-term, oral, feed) | NOEL (Colinus virginianus; diet) | LD50 (Coturnix japonica)
[Cl-].[Cu+2].[Cu+2].[OH-].[OH-].[OH-] [Dicopper chloride trihydroxide] | 0.0076 mg/L | 333 mg/kg-day | 511 mg/kg | < 15 mg/kg | 44.3 µg/piece | 12.1 µg/piece | – | – | – | –
O.O.[Cu] [Copper hydroxide (Cu(OH)2)] | – | – | 223 mg/kg | – | – | – | 7.05 mg/kg-day | 216 mg/kg-day and 191 mg/kg-day | 124 mg/kg-day and 132 mg/kg-day | 556 mg/kg
[Cu+].[Cu+].[O-2] [Cuprous oxide] | – | – | – | – | – | – | – | – | 31.9 mg/kg-day | 1180 mg/kg
